Results published in patent US8663616B2, “Enzymatic peracid generation for use in oral care products” (E I du Pont de Nemours and Company, priority 2010, dated 2014).
Ends that are not written are not given here. * marks the point of attachment. Biotin = O=C1N[C@H]2[C@H](CS[C@H]2CCCCC(=O)*)N1

B1: EZ-15: C277T-link1-H6, SEQ ID NO: 439 (protein)
chain: MAFFDLPLEELKKYRPERYEEKDFDEFWEETLAESEKFPLDPVFERMESHLKTVEAYDVTFSGYRGQRIKGWLLVPKLEEEKLPCVVQYIGYNGGRGFPHDWLFWPSMGYICFVMDTRGQGSGWLKGDTPDYPEGPVDPQYPGFMTRGILDPRTYYYRRVFTDAVRAVEAAASFPQVDQERIVIAGGSQGGGIALAVSALSKKAKALLCDVPFLCHFRRAVQLVDTHPYAEITNFLKTHRDKEEIVFRTLSYFDGVNFAARAKIPALFSVGLMDNITPPSTVFAAYNYYAGPKEIRIYPYNNHEGGGSFQAVEQVKFLKKLFEKGGPGSGGAGSPGSAGGPGSHHHHHH
B2: EZ-18: C277T-link1-(GK)5-H6, SEQ ID NO: 442 (protein)
chain: MAFFDLPLEELKKYRPERYEEKDFDEFWEETLAESEKFPLDPVFERMESHLKTVEAYDVTFSGYRGQRIKGWLLVPKLEEEKLPCVVQYIGYNGGRGFPHDWLFWPSMGYICFVMDTRGQGSGWLKGDTPDYPEGPVDPQYPGFMTRGILDPRTYYYRRVFTDAVRAVEAAASFPQVDQERIVIAGGSQGGGIALAVSALSKKAKALLCDVPFLCHFRRAVQLVDTHPYAEITNFLKTHRDKEEIVFRTLSYFDGVNFAARAKIPALFSVGLMDNITPPSTVFAAYNYYAGPKEIRIYPYNNHEGGGSFQAVEQVKFLKKLFEKGGPGSGGAGSPGSAGGPGSGKGKGKGKGKHHHHHH
B3: EZ-16: C277T-link1-HC263-H6, SEQ ID NO: 440 (protein)
chain: MAFFDLPLEELKKYRPERYEEKDFDEFWEETLAESEKFPLDPVFERMESHLKTVEAYDVTFSGYRGQRIKGWLLVPKLEEEKLPCVVQYIGYNGGRGFPHDWLFWPSMGYICFVMDTRGQGSGWLKGDTPDYPEGPVDPQYPGFMTRGILDPRTYYYRRVFTDAVRAVEAAASFPQVDQERIVIAGGSQGGGIALAVSALSKKAKALLCDVPFLCHFRRAVQLVDTHPYAEITNFLKTHRDKEEIVFRTLSYFDGVNFAARAKIPALFSVGLMDNITPPSTVFAAYNYYAGPKEIRIYPYNNHEGGGSFQAVEQVKFLKKLFEKGGPGSGGAGSPGSAGGPGSPSAQSQLPDKHSGLHERAPQRYGPEPEPEPEPIPEPPKEAPVVIEKPKPKPKPKPKPPAHDHKNQKETHQRHAAGSGGGGSPHHHHHH
B4: EZ-17: C277T-link2-H6, SEQ ID NO: 441 (protein)
chain: MAFFDLPLEELKKYRPERYEEKDFDEFWEETLAESEKFPLDPVFERMESHLKTVEAYDVTFSGYRGQRIKGWLLVPKLEEEKLPCVVQYIGYNGGRGFPHDWLFWPSMGYICFVMDTRGQGSGWLKGDTPDYPEGPVDPQYPGFMTRGILDPRTYYYRRVFTDAVRAVEAAASFPQVDQERIVIAGGSQGGGIALAVSALSKKAKALLCDVPFLCHFRRAVQLVDTHPYAEITNFLKTHRDKEEIVFRTLSYFDGVNFAARAKIPALFSVGLMDNITPPSTVFAAYNYYAGPKEIRIYPYNNHEGGGSFQAVEQVKFLKKLFEKGGSHHHHHH
B5: EZ-14: C277T-link1-DenP308-H6, SEQ ID NO: 438 (protein)
chain: MAFFDLPLEELKKYRPERYEEKDFDEFWEETLAESEKFPLDPVFERMESHLKTVEAYDVTFSGYRGQRIKGWLLVPKLEEEKLPCVVQYIGYNGGRGFPHDWLFWPSMGYICFVMDTRGQGSGWLKGDTPDYPEGPVDPQYPGFMTRGILDPRTYYYRRVFTDAVRAVEAAASFPQVDQERIVIAGGSQGGGIALAVSALSKKAKALLCDVPFLCHFRRAVQLVDTHPYAEITNFLKTHRDKEEIVFRTLSYFDGVNFAARAKIPALFSVGLMDNITPPSTVFAAYNYYAGPKEIRIYPYNNHEGGGSFQAVEQVKFLKKLFEKGGPGSGGAGSPGSAGGPGSTKPPRTPTANTSRPHHNFGSGGGGSPHHHHHH
B6: EZ-12: T. maritima C277T variant, untargeted, SEQ ID NO: 437 (protein)
chain: MAFFDLPLEELKKYRPERYEEKDFDEFWEETLAESEKFPLDPVFERMESHLKTVEAYDVTFSGYRGQRIKGWLLVPKLEEEKLPCVVQYIGYNGGRGFPHDWLFWPSMGYICFVMDTRGQGSGWLKGDTPDYPEGPVDPQYPGFMTRGILDPRTYYYRRVFTDAVRAVEAAASFPQVDQERIVIAGGSQGGGIALAVSALSKKAKALLCDVPFLCHFRRAVQLVDTHPYAEITNFLKTHRDKEEIVFRTLSYFDGVNFAARAKIPALFSVGLMDNITPPSTVFAAYNYYAGPKEIRIYPYNNHEGGGSFQAVEQVKFLKKLFEKG

Tests used:
[1] = 20 μM biotin-labelled peptide, 30 min 37° C.; streptavidin-HRP, QuantaBlu; three replicate enamel substrates; no peptide 494.2
Experimental: A total of 11 synthetic peptides were manufactured using sequences obtained from Table 3. Peptides were obtained from SynBioSci Corp. (Livermore, Calif.) with biotin labeled lysine at the C-terminus.
Enamel substrates were prepared as described in Example 2. Each substrate was incubated for 1 h at room temperature (˜22° C.) with 1 mL of blocking buffer, consisting of 1 mg/mL BSA in PBST (Pierce BUPH™ #28372 with 0.1% TWEEN® 20). The blocking buffer was removed by aspirating the liquid out of each well. The tube was rinsed 2 times with wash buffer consisting of PBST. The wells were filled with 500 μL of 20 μM peptide solution which was prepared by diluting in blocking buffer. The samples were incubated for 30 min with slow shaking at 37° C. The non-binding peptide was removed by washing 6 times with PBST. Then, 500 μL of horseradish peroxidase/streptavidin conjugate (Pierce #22127), diluted 1:1000 in PBST, was added and incubated for 1 h at room temperature (˜22° C.). The conjugate solution was removed and the enamel blocks were washed 4 times with PEST.
Each enamel substrate was removed from the well and washed again in a 15-mL test tube with 10 mL of PBST. Each enamel substrate was then mounted in a clean well plate with only the enamel surface exposed. 200 μL of a QUANTABLU™ Substrate Solution (Thermo-Fisher, Rockford, Ill.; #1856187) was added directly to each enamel block. The solution was incubated for 20 min at room temperature. 200 μL of QUANTABLU™ Stop Solution (Thermo Fisher) was added. After mixing, 200 μL of solution was transferred to a clean 96-well black microcentrifuge plate. The fluorescence of the plate was measured with 325 nm excitation and 420 nm emission with no cutoff wavelength using a microplate spectrophotometer (Molecular Devices, Sunnyvale, Calif.). The analysis of the 11 pellicle/enamel binding candidates was compared to a known binding peptide, DenP03. Each sequence was tested with three replicate enamel substrates.

[2] = T. maritima C277S/C277T constructs, peracetic acid when bound to bovine enamel (Example 11); format: biochemical; details: bovine enamel exposed to 10 μM enzyme, 4 washes; 100 mM triacetin, 100 mM H2O2, 30 min, 37° C.; no enzyme 570
Experimental: (§1) The detection of peracetic acid followed the method described in Pinkernell et. al. (Analyst, 1997, 122, 567) using colorimetric detection of 2,2′-azino-bis(3-ethylbenzothiazoline(-6-sulfonate (ABTS) oxidation by peracetic acid. Following the formation of peracetic acid with the addition of triacetin and hydrogen peroxide, 90 μL of solution was added to 10 μL of 0.1 M H3PO4 in a well plate. 50 μL of 1 M acetic acid, 50 μL of 0.5 g/L ABTS and 50 μL of 0.002 g/L of KI was added. The solution was allowed to develop for 5 min. The absorbance of the solution was measured at 405 nm using a microplate reader. The peracetic acid concentration was calculated based on a standard curve developed simultaneously using peracetic acid reagent solution.
The perhydrolase enzymes were also assessed for binding to bovine enamel substrates. Enamel substrates were prepared as described in Example 2 and 3. Each enamel block was hydrated in water for overnight at room temperature (˜22° C.). The enamel blocks were then equilibrated with 10 mM potassium phosphate buffer, pH7.2, for 10 min. The enamel substrates were rinsed 3 times the buffer. The enamel wells were filled with 500 μL of 10 μM enzyme solutions which was prepared by diluting in 10 mM phosphate buffer. The samples were incubated for 30 min with slow shaking at 37° C. The non-binding enzyme was removed by washing 4 times with phosphate buffer. Then, each enamel block was embedded inside a putty filled 24-well plate, with only the enamel top surface exposed. The perhydrolase activity from enamel bound enzyme was measured as described in Example 8. 100 μL reaction mixtures (100 mM phosphate buffer, pH7.2 and 100 mM H2O2 and 100 mM triacetin) was added on top of the enamel and incubated for 30 min at 37° C. A 90 μL aliquot was removed for detection via ABTS oxidation as noted in Example 8. Each sample data point represents an average of 3 independent enamel blocks.

[3] = T. maritima C277S/C277T constructs, peracetic acid in solution (Example 11); format: biochemical; details: 0.5 μM enzyme, 100 mM triacetin, 100 mM H2O2, pH 7.2, 10 min, 37° C.; no enzyme 114
Experimental: as §1
Perhydrolase enzymes listed in Table 5 were assessed for enzyme activity in solution as described in Example 7. The enzyme activity in solution was measured by making a 500 μl solution of 0.5 μM of each enzyme in 100 mM triacetin, 100 mM H2O2 and 10 mM phosphate buffer, pH 7.2. The solution was incubated for 10 min, at 37° C. After the reaction was stopped by mixing an aliquot with H3PO4, a 10 μL aliquot was removed for proper dilution, and then detected via ABTS oxidation as described in Example 7.

Row | Molecule | Avg Fluorescence 325/420 [1] | Peracetic acid (ppm) On Enamel [2] | Peracetic acid (ppm) In Solution [3]
1 | GMGSEVLSQYPQAPVGK(Biotin) [DenP312] | 2301.0 | – | –
2 | GSNNHLPSTVPRLTVK(Biotin) [DenP306] | 1300.0 | – | –
3 | ATPSQHRYGLMQNHAPNGIEK(Biotin) [DenP311] | 795.3 | – | –
4 | TTYHYKNIYQESYQQRNPAVK (Biotin) [DenP03, reference compound] | 3448.3 | – | –
5 | SNPIPNFAHDLRHSKYNSK (Biotin) [DenP307] | 861.6 | – | –
6 | DTIHPNKMKSPSSPLK (Biotin) [DenP305] | 581.2 | – | –
7 | HDPYTMKSALRQSTSK(Biotin) [DenP303] | 948.6 | – | –
8 | ANSGFPIWLQKYPWSEVQQEK (Biotin) [DenP309] | 1729.5 | – | –
9 | QAAQVHMMQHSRPTTK (Biotin) [DenP302] | 608.6 | – | –
10 | DLGTFPNRTLKMAAHK(Biotin) [DenP304] | 642.8 | – | –
11 | SNATMYNIQSHSHHQK (Biotin) [DenP301] | 1098.4 | – | –
12 | TKPPRTPTANTSRPHHNFK(Biotin) [DenP308] | 12302.6 | – | –
13 | B1 | – | 631 ppm | 5921 ppm
14 | B2 | – | 1158 ppm | 5537 ppm
15 | B3 | – | 1832 ppm | 6496 ppm
16 | B4 | – | 616 ppm | 5360 ppm
17 | B5 | – | 1418 ppm | 4689 ppm
18 | B6 | – | 612 ppm | 4918 ppm
